According to PMC5218480 (PLoS ONE, 2017):

Test system: MV-4-11 cells
Experiment: Gene expression microarray analysis (Affymetrix PrimeView) and GSEA
Assay type: cell-based, human
Design: RFU PODN (11730768_x_at) / Fold change /veh PODN (11730768_x_at) / RFU LINC00158 (11744669_a_at) / Fold change /veh LINC00158 (11744669_a_at) / RFU DUSP10 (11751237_a_at) / Fold change /veh DUSP10 (11751237_a_at) / RFU ID3 (11757404_x_at) / Fold change /veh ID3 (11757404_x_at) / RFU PLEKHG5 (11737974_s_at) / Fold change /veh PLEKHG5 (11737974_s_at) / RFU LRRC4B (11730491_at) / Fold change /veh LRRC4B (11730491_at) / RFU GIMAP4 (11747438_a_at) / Fold change /veh GIMAP4 (11747438_a_at) / RFU KRT8 (11758183_x_at) / Fold change /veh KRT8 (11758183_x_at) / RFU CNN1 (11734310_a_at) / Fold change /veh CNN1 (11734310_a_at) / RFU VPS37D (11726825_at) / Fold change /veh VPS37D (11726825_at) / RFU C10orf10 (11716522_x_at) / Fold change /veh C10orf10 (11716522_x_at) / RFU KIR2DL2 /// KIR2DL4 /// KIR2DL5A /// KIR2DL5B /// KIR2DS1 /// KIR2DS2 /// KIR2DS3 /// KIR2DS4 /// KIR3DL3 /// KIR3DL3 /// KIR3DS1 (11738374_at) / Fold change /veh KIR2DL2 /// KIR2DL4 /// KIR2DL5A /// KIR2DL5B /// KIR2DS1 /// KIR2DS2 /// KIR2DS3 /// KIR2DS4 /// KIR3DL3 /// KIR3DL3 /// KIR3DS1 (11738374_at) / RFU C1QL1 (11718748_at) / Fold change /veh C1QL1 (11718748_at) / RFU TMPRSS4 (11747572_a_at) / Fold change /veh TMPRSS4 (11747572_a_at) / RFU HAMP (11756126_x_at) / Fold change /veh HAMP (11756126_x_at) / RFU RNFT2 (11725882_a_at) / Fold change /veh RNFT2 (11725882_a_at) / RFU NR4A2 (11747474_a_at) / Fold change /veh NR4A2 (11747474_a_at) / RFU ABCC12 (11746883_a_at) / Fold change /veh ABCC12 (11746883_a_at) / RFU TMEM136 (11760407_x_at) / Fold change /veh TMEM136 (11760407_x_at) / RFU CLDN22 /// WWC2 (11732394_at) / Fold change /veh CLDN22 /// WWC2 (11732394_at) / RFU HLA-DPB1 (11760878_x_at) / Fold change /veh HLA-DPB1 (11760878_x_at) / RFU SPINT1 (11716480_a_at) / Fold change /veh SPINT1 (11716480_a_at) / RFU GAP43 (11754022_s_at) / Fold change /veh GAP43 (11754022_s_at) / RFU A4GNT (11735810_at) / Fold change /veh A4GNT (11735810_at) / RFU PRB3 (11715151_x_at) / Fold change /veh PRB3 (11715151_x_at) / RFU TUBB4B (11761932_at) / Fold change /veh TUBB4B (11761932_at) / RFU CAPN14 (11732068_a_at) / Fold change /veh CAPN14 (11732068_a_at) / RFU TMCC2 (11721928_a_at) / Fold change /veh TMCC2 (11721928_a_at) / RFU IRGQ (11745062_a_at) / Fold change /veh IRGQ (11745062_a_at) / RFU FAM174B (11720279_a_at) / Fold change /veh FAM174B (11720279_a_at) / RFU TMPRSS4 (11748680_a_at) / Fold change /veh TMPRSS4 (11748680_a_at) / RFU FAM212B (11763350_a_at) / Fold change /veh FAM212B (11763350_a_at) / RFU PLEKHG5 (11743358_a_at) / Fold change /veh PLEKHG5 (11743358_a_at) / RFU ZSCAN30 (11745921_a_at) / Fold change /veh ZSCAN30 (11745921_a_at) / RFU CMKLR1 (11741424_a_at) / Fold change /veh CMKLR1 (11741424_a_at) / RFU LOC101060620 /// MAPK8IP1 (11723275_at) / Fold change /veh LOC101060620 /// MAPK8IP1 (11723275_at) / RFU SPTSSB (11747773_x_at) / Fold change /veh SPTSSB (11747773_x_at) / RFU PRSS12 (11739890_at) / Fold change /veh PRSS12 (11739890_at) / RFU BIN1 (11741810_x_at) / Fold change /veh BIN1 (11741810_x_at) / RFU WNT11 (11732464_a_at) / Fold change /veh WNT11 (11732464_a_at) / RFU C10orf10 (11716521_a_at) / Fold change /veh C10orf10 (11716521_a_at) / RFU C5orf56 (11738089_at) / Fold change /veh C5orf56 (11738089_at) / RFU CYB561 (11721691_x_at) / Fold change /veh CYB561 (11721691_x_at) / RFU ANKRD19P (11752326_a_at) / Fold change /veh ANKRD19P (11752326_a_at) / RFU OR2T12 /// OR2T33 /// OR2T8 (11738714_s_at) / Fold change /veh OR2T12 /// OR2T33 /// OR2T8 (11738714_s_at) / RFU VCAN (11748164_a_at) / Fold change /veh VCAN (11748164_a_at) / RFU JSRP1 (11732532_at) / Fold change /veh JSRP1 (11732532_at) / RFU KRTAP10-11 (11738290_x_at) / Fold change /veh KRTAP10-11 (11738290_x_at) / RFU MYO3A (11730013_a_at) / Fold change /veh MYO3A (11730013_a_at) / RFU EBF3 (11725865_a_at) / Fold change /veh EBF3 (11725865_a_at) / RFU CAMK2N1 (11719241_x_at) / Fold change /veh CAMK2N1 (11719241_x_at) / RFU C5orf56 (11738088_a_at) / Fold change /veh C5orf56 (11738088_a_at) / RFU OLFML3 (11715873_a_at) / Fold change /veh OLFML3 (11715873_a_at) / RFU LOC100653217 /// NTM (11731650_a_at) / Fold change /veh LOC100653217 /// NTM (11731650_a_at) / RFU MAPK11 (11762145_a_at) / Fold change /veh MAPK11 (11762145_a_at) / RFU FIZ1 (11724087_x_at) / Fold change /veh FIZ1 (11724087_x_at) / RFU OASL (11726364_x_at) / Fold change /veh OASL (11726364_x_at) / RFU SOX15 (11748057_x_at) / Fold change /veh SOX15 (11748057_x_at) / RFU CD79A (11719716_a_at) / Fold change /veh CD79A (11719716_a_at) / RFU HIST1H1D (11736915_at) / Fold change /veh HIST1H1D (11736915_at) / RFU CASKIN2 (11723855_a_at) / Fold change /veh CASKIN2 (11723855_a_at) / RFU LOC730098 (11760151_x_at) / Fold change /veh LOC730098 (11760151_x_at) / RFU OR4N2 (11742367_at) / Fold change /veh OR4N2 (11742367_at) / RFU PRRT2 (11749266_a_at) / Fold change /veh PRRT2 (11749266_a_at) / RFU SNX32 (11753110_a_at) / Fold change /veh SNX32 (11753110_a_at) / RFU CDHR5 (11726645_a_at) / Fold change /veh CDHR5 (11726645_a_at) / RFU RCAN1 (11760418_a_at) / Fold change /veh RCAN1 (11760418_a_at) / RFU FAM167A (11723789_a_at) / Fold change /veh FAM167A (11723789_a_at) / RFU FAM26E (11764081_at) / Fold change /veh FAM26E (11764081_at) / RFU ISYNA1 (11749810_s_at) / Fold change /veh ISYNA1 (11749810_s_at) / RFU ACY1 (11761880_at) / Fold change /veh ACY1 (11761880_at) / RFU 11764098_at / Fold change /veh 11764098_at / RFU SAMD14 (11745864_x_at) / Fold change /veh SAMD14 (11745864_x_at) / RFU NPB (11741838_a_at) / Fold change /veh NPB (11741838_a_at) / RFU TMPRSS6 (11731388_a_at) / Fold change /veh TMPRSS6 (11731388_a_at) / RFU KRTAP10-2 (11738614_at) / Fold change /veh KRTAP10-2 (11738614_at) / RFU ARHGAP8 /// PRR5-ARHGAP8 (11727945_x_at) / Fold change /veh ARHGAP8 /// PRR5-ARHGAP8 (11727945_x_at) / RFU KRTAP5-7 /// NADSYN1 (11734609_at) / Fold change /veh KRTAP5-7 /// NADSYN1 (11734609_at) / RFU RASL12 (11751679_a_at) / Fold change /veh RASL12 (11751679_a_at) / RFU CDKN2B (11736163_a_at) / Fold change /veh CDKN2B (11736163_a_at) / RFU PRF1 (11729649_at) / Fold change /veh PRF1 (11729649_at) / RFU, ZNF638 /// ZNF638-IT1 / Fold change vs veh, ZNF638 /// ZNF638-IT1 / RFU, PANK3 / Fold change vs veh, PANK3 / RFU, SH3YL1 / Fold change vs veh, SH3YL1 / RFU, ZEB2 / Fold change vs veh, ZEB2 / RFU, NRIP1 / Fold change vs veh, NRIP1 / RFU, PTTG1IP / Fold change vs veh, PTTG1IP / RFU, CAPN2 / Fold change vs veh, CAPN2 / RFU, MED14 / Fold change vs veh, MED14 / RFU, SNORA58 / Fold change vs veh, SNORA58 / RFU, C1orf63 / Fold change vs veh, C1orf63 / RFU, LRRFIP1 / Fold change vs veh, LRRFIP1 / RFU, NDUFAF7 / Fold change vs veh, NDUFAF7 / RFU, SLC12A2 / Fold change vs veh, SLC12A2 / RFU, IBTK / Fold change vs veh, IBTK / RFU, ESF1 / Fold change vs veh, ESF1 / Fold change vs veh, TMEM50B / RFU, TAOK1 / Fold change vs veh, TAOK1 / RFU, ACBD3 / Fold change vs veh, ACBD3 / RFU, TMA16 / Fold change vs veh, TMA16 / RFU, RWDD3 / Fold change vs veh, RWDD3 / RFU, BCAT1 / Fold change vs veh, BCAT1 / RFU, EDEM3 / Fold change vs veh, EDEM3 / RFU, TMEM33 / Fold change vs veh, TMEM33 / RFU, WDR75 / Fold change vs veh, WDR75 / RFU, AHCTF1 / Fold change vs veh, AHCTF1 / RFU, TFRC / Fold change vs veh, TFRC / RFU, ZDHHC17 / Fold change vs veh, ZDHHC17 / RFU, NOM1 / Fold change vs veh, NOM1 / RFU, ARL8B / Fold change vs veh, ARL8B / RFU, ZBTB11 / Fold change vs veh, ZBTB11 / RFU, TAMM41 / Fold change vs veh, TAMM41 / RFU, KIAA1704 /// LOC100996395 / Fold change vs veh, KIAA1704 /// LOC100996395 / RFU, ING1 / Fold change vs veh, ING1 / RFU, TRMT61B / Fold change vs veh, TRMT61B / RFU, FUBP3 / Fold change vs veh, FUBP3 / RFU, TP53 / Fold change vs veh, TP53 / RFU, TNKS2 / Fold change vs veh, TNKS2 / RFU, ZFP14 / Fold change vs veh, ZFP14 / RFU, ACTR2 / Fold change vs veh, ACTR2 / RFU, PPP3R1 / Fold change vs veh, PPP3R1 / RFU, PIK3R1 / Fold change vs veh, PIK3R1 / RFU, HNRNPA1 / Fold change vs veh, HNRNPA1 / RFU, RNF170 / Fold change vs veh, RNF170 / RFU, ZNF28 / Fold change vs veh, ZNF28 / RFU, RNGTT / Fold change vs veh, RNGTT / RFU, OGT / Fold change vs veh, OGT / RFU, BRD1 / Fold change vs veh, BRD1 / RFU, MARS / Fold change vs veh, MARS / RFU, ZNF655 / Fold change vs veh, ZNF655 / RFU, FAHD1 / Fold change vs veh, FAHD1 / RFU, BDP1 / Fold change vs veh, BDP1 / RFU, LRRCC1 / Fold change vs veh, LRRCC1 / RFU, ARID1A / Fold change vs veh, ARID1A / RFU, ZNF146 / Fold change vs veh, ZNF146 / RFU, ZNF330 / Fold change vs veh, ZNF330 / RFU, GPN3 / Fold change vs veh, GPN3 / RFU, C9orf123 / Fold change vs veh, C9orf123 / RFU, N4BP2L2 / Fold change vs veh, N4BP2L2 / RFU, ARFIP1 / Fold change vs veh, ARFIP1 / RFU, FAM179B / Fold change vs veh, FAM179B / RFU, BCL10 / Fold change vs veh, BCL10 / RFU, UHRF1BP1L / Fold change vs veh, UHRF1BP1L / RFU, BET1 / Fold change vs veh, BET1 / RFU, CNOT2 / Fold change vs veh, CNOT2 / RFU, ZNF268 / Fold change vs veh, ZNF268 / Fold change vs veh, ZNF507 / RFU, DGCR2 / Fold change vs veh, DGCR2 / RFU, WDSUB1 / Fold change vs veh, WDSUB1 / Fold change vs veh, HSP90B1 /// MIR3652 / RFU, ADSS / Fold change vs veh, ADSS / RFU, GK / Fold change vs veh, GK / RFU, ZNF148 / Fold change vs veh, ZNF148 / RFU, TAF9 / Fold change vs veh, TAF9 / RFU, SLC1A5 / Fold change vs veh, SLC1A5 / RFU, SLMO2 / Fold change vs veh, SLMO2 / RFU, ABCC4 / Fold change vs veh, ABCC4 / RFU, LOC101060439 /// RAP1B / Fold change vs veh, LOC101060439 /// RAP1B / RFU, RFX7 / Fold change vs veh, RFX7 / RFU, GTPBP10 / Fold change vs veh, GTPBP10 / RFU, CNEP1R1 / Fold change vs veh, CNEP1R1 / RFU, BIVM-ERCC5 /// ERCC5 / Fold change vs veh, BIVM-ERCC5 /// ERCC5 / RFU, ILF3 / Fold change vs veh, ILF3 / RFU 11762660_at / Fold change /veh 11762660_at / RFU VCAN (11757783_s_at) / Fold change /veh VCAN (11757783_s_at) / RFU DDX43 (11728927_at) / Fold change /veh DDX43 (11728927_at) / RFU KRT8 (11758188_x_at) / Fold change /veh KRT8 (11758188_x_at) / RFU NKD1 (11759106_at) / Fold change /veh NKD1 (11759106_at) / RFU SRD5A1 (11742802_a_at) / Fold change /veh SRD5A1 (11742802_a_at) / RFU TPSAB1 /// TPSB2 (11721975_s_at) / Fold change /veh TPSAB1 /// TPSB2 (11721975_s_at) / RFU GSTM3 (11746129_a_at) / Fold change /veh GSTM3 (11746129_a_at) / RFU IL23R (11737362_x_at) / Fold change /veh IL23R (11737362_x_at) / RFU TMEM51 (11727254_a_at) / Fold change /veh TMEM51 (11727254_a_at) / RFU PIWIL2 (11732686_x_at) / Fold change /veh PIWIL2 (11732686_x_at) / RFU ORM1 (11744905_x_at) / Fold change /veh ORM1 (11744905_x_at) / RFU CCDC152 (11743942_at) / Fold change /veh CCDC152 (11743942_at) / RFU ECM1 (11717891_a_at) / Fold change /veh ECM1 (11717891_a_at) / RFU IL23R (11748794_a_at) / Fold change /veh IL23R (11748794_a_at) / RFU TNFAIP8L3 (11732012_x_at) / Fold change /veh TNFAIP8L3 (11732012_x_at) / RFU MBOAT4 (11741988_at) / Fold change /veh MBOAT4 (11741988_at) / RFU 11764193_at / Fold change /veh 11764193_at / RFU TMEM53 (11763286_at) / Fold change /veh TMEM53 (11763286_at) / RFU MAGEB2 (11727129_at) / Fold change /veh MAGEB2 (11727129_at) / RFU TMEM200A (11744735_a_at) / Fold change /veh TMEM200A (11744735_a_at) / RFU CCDC152 (11751479_a_at) / Fold change /veh CCDC152 (11751479_a_at) / RFU FAM211A (11726209_a_at) / Fold change /veh FAM211A (11726209_a_at) / RFU RGS16 (11746705_a_at) / Fold change /veh RGS16 (11746705_a_at) / RFU VCAN (11755009_s_at) / Fold change /veh VCAN (11755009_s_at) / RFU RHOB (11743442_s_at) / Fold change /veh RHOB (11743442_s_at) / RFU RGS16 (11720943_a_at) / Fold change /veh RGS16 (11720943_a_at) / RFU RGS16 (11720944_at) / Fold change /veh RGS16 (11720944_at) / RFU, VPS4B / Fold change vs veh, VPS4B / RFU, CREB1 / Fold change vs veh, CREB1 / RFU, DNAJC13 / Fold change vs veh, DNAJC13 / RFU, GNAQ / Fold change vs veh, GNAQ / RFU, CDK5R1 / Fold change vs veh, CDK5R1 / RFU, ZRANB3 / Fold change vs veh, ZRANB3 / RFU, CUL4A / Fold change vs veh, CUL4A / RFU, CCNY / Fold change vs veh, CCNY / RFU, UFL1 / Fold change vs veh, UFL1 / RFU, COG3 / Fold change vs veh, COG3 / RFU, DIAPH2 / Fold change vs veh, DIAPH2 / RFU, SKA2 / Fold change vs veh, SKA2 / RFU, AFF3 / Fold change vs veh, AFF3 / RFU, LMF1 / Fold change vs veh, LMF1 / RFU, IPO11 / Fold change vs veh, IPO11 / RFU, DFFB / Fold change vs veh, DFFB / RFU, FOXP1 / Fold change vs veh, FOXP1 / RFU, CARD8 / Fold change vs veh, CARD8 / RFU, STRN3 / Fold change vs veh, STRN3 / RFU, ADK / Fold change vs veh, ADK / RFU, RASSF2 / Fold change vs veh, RASSF2 / RFU, WIPF1 / Fold change vs veh, WIPF1 / RFU, LARP1B / Fold change vs veh, LARP1B / RFU, RASA1 / Fold change vs veh, RASA1 / RFU, RB1 / Fold change vs veh, RB1 / RFU, PPFIA1 / Fold change vs veh, PPFIA1 / RFU, MAT2A / Fold change vs veh, MAT2A / RFU, CCT5 / Fold change vs veh, CCT5 / RFU, WDR92 / Fold change vs veh, WDR92 / RFU, CUX1 / Fold change vs veh, CUX1 / RFU, TTC7A / Fold change vs veh, TTC7A / RFU, TMEM135 / Fold change vs veh, TMEM135 / RFU, DEPTOR / Fold change vs veh, DEPTOR / RFU, CPM / Fold change vs veh, CPM / RFU, DNAJB6 / Fold change vs veh, DNAJB6 / RFU, CACNA2D3 / Fold change vs veh, CACNA2D3 / RFU, DTX4 / Fold change vs veh, DTX4 / RFU, TFCP2 / Fold change vs veh, TFCP2 / RFU, GMCL1 /// GMCL1P1 / Fold change vs veh, GMCL1 /// GMCL1P1 / RFU, AEBP2 / Fold change vs veh, AEBP2 / RFU, SNHG1 /// SNORD22 /// SNORD25 /// SNORD26 /// SNORD27 /// SNORD28 /// SNORD29 /// SNORD31 / Fold change vs veh, SNHG1 /// SNORD22 /// SNORD25 /// SNORD26 /// SNORD27 /// SNORD28 /// SNORD29 /// SNORD31 / Fold change (Aza/veh), C12orf56 (ProbeSet 11735607_a_at) / Fold change (ACY-1035/veh), C12orf56 (ProbeSet 11735607_a_at) / Fold change (Aza/veh), FGFR1OP (ProbeSet 11751329_s_at) / Fold change (ACY-1035/veh), FGFR1OP (ProbeSet 11751329_s_at) / Fold change (Aza/veh), VPS36 (ProbeSet 11739960_a_at) / Fold change (ACY-1035/veh), VPS36 (ProbeSet 11739960_a_at) / RFU SYPL1 (11715823_x_at) / Fold change /veh SYPL1 (11715823_x_at) / RFU IGFBP7 (11715501_s_at) / Fold change /veh IGFBP7 (11715501_s_at) / RFU REEP3 (11722064_at) / Fold change /veh REEP3 (11722064_at) / RFU IGLL1 (11728026_x_at) / Fold change /veh IGLL1 (11728026_x_at): dose or concentration left out as unconfirmed
Settings: MV-4-11 cells, 48 hours

With `Nc1ccc(-c2cccs2)cc1NC(=O)c1ccc2c(c1)cc(C1CC1)n2CCN1CCOCC1` [ACY-1035] the “Fold change /veh RHOB (11743442_s_at)” value was 1.20.
